Consider 12 compounds from US9969752B2, “Inhibitors of HIF prolyl hydroxylase” (MERCK SHARP & DOHME CORP., priority 2014, dated 2018).

pIC50: −log10 of the molar value.

T1 sequence (Q9GZT9 whole entry): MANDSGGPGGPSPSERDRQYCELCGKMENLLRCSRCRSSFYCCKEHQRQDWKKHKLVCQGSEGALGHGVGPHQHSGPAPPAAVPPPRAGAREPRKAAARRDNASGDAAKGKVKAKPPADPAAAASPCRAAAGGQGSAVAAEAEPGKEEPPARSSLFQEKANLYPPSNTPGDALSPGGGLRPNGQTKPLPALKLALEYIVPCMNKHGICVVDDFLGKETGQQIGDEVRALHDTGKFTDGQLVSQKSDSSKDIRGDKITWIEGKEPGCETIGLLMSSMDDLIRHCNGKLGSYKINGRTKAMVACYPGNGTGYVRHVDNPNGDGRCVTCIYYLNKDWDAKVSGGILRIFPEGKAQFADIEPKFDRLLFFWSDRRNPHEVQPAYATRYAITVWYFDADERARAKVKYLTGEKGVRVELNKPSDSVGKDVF

One assay has as its target T1, Human HIF-PHD2 (Homo sapiens, UniProt Q9GZT9).
T1 construct: FLAG-tagged full length PHD2 expressed in and purified from baculovirus-infected Sf9 cells; FLAG; made in house; host or cells: baculovirus-infected Sf9 cells
The assay is described as follows: Inhibition of the hydroxylation of a HIF peptide by PHD2 (time resolved fluorescence, 384-well). It is filed as biochemical. Particulars: FLAG-tagged full length PHD2; 0.2 μM 2-oxoglutarate, 0.5 μM HIF-1α peptide; 45 minutes at room temperature; read-out: Human HIF-PHD2 IC50.
On to `O=C(O)CNC(=O)c1c(O)c2ccc(-c3cccnc3)c3c2n(c1=O)CCO3` [Example 153, N-[(7-Hydroxy-5-oxo-10-pyridin-3-yl-2,3-dihydro-5H-[1,4]oxazino[2,3,4-ij]quinolin-6-yl)carbonyl]glycine], for which the pIC50 is 8.44.

Still in this assay, the particulars now being: FLAG-tagged full length PHD2; 0.2 μM 2-oxoglutarate, 0.5 μM HIF-1α peptide; 45 minutes at room temperature; read-out: MS m/z (M + 1)+ and human HIF-PHD2 IC50.
`Cc1ccc(-c2ccc(C3COc4cccc5c(O)c(C(=O)NCC(=O)O)c(=O)n3c45)cc2)cc1` (stereo not drawn) [Example 144, N-{[7-hydroxy-3-(4′-methylbiphenyl-4-yl)-5-oxo-2,3-dihydro-5H-[1,4]oxazino[2,3,4-ij]quinolin-6-yl]carbonyl}glycine]: the pIC50 was 8.00.

`COc1ccc(-c2ccc(C3COc4cccc5c(O)c(C(=O)NCC(=O)O)c(=O)n3c45)cc2)cc1` (stereo not drawn) [Example 145, N-{[7-hydroxy-3-(4′-methoxybiphenyl-4-yl)-5-oxo-2,3-dihydro-5H-[1,4]oxazino[2,3,4-ij]quinolin-6-yl]carbonyl}glycine]: the pIC50 is 8.17.

As to `N#Cc1ccc(-c2ccc(C3COc4cccc5c(O)c(C(=O)NCC(=O)O)c(=O)n3c45)cc2)cc1` (stereo not drawn) [Example 146, N-{[3-(4′-cyanobiphenyl-4-yl)-7-hydroxy-5-oxo-2,3-dihydro-5H-[1,4]oxazino[2,3,4-ij]quinolin-6-yl]carbonyl}glycine], the pIC50 is 8.21.

As for `COc1ncccc1-c1ccc(C2COc3cccc4c(O)c(C(=O)NCC(=O)O)c(=O)n2c34)cc1` (stereo not drawn) [Example 147, N-({7-hydroxy-3-[4-(2-methoxypyridin-3-yl)phenyl]-5-oxo-2,3-dihydro-5H-[1,4]oxazino[2,3,4-ij]quinolin-6-yl}carbonyl)glycine], the pIC50 is 7.74.

`O=C(O)CNC(=O)c1c(O)c2cccc3c2n(c1=O)C(c1ccc(-c2ccncc2)cc1)CO3` (stereo not drawn) [Example 148, N-{[7-hydroxy-5-oxo-3-(4-pyridin-4-ylphenyl)-2,3-dihydro-5H-[1,4]oxazino[2,3,4-ij]quinolin-6-yl]carbonyl}glycine]: the pIC50 was 8.24.

In the case of `Nc1ccc(-c2ccc(C3COc4cccc5c(O)c(C(=O)NCC(=O)O)c(=O)n3c45)cc2)cn1` (stereo not drawn) [Example 149, N-({3-[4-(6-aminopyridin-3-yl)phenyl]-7-hydroxy-5-oxo-2,3-dihydro-5H-[1,4]oxazino[2,3,4-ij]quinolin-6-yl}carbonyl)glycine], the pIC50 was 7.89.

With `N#Cc1cccc(-c2ccc(C3COc4cccc5c(O)c(C(=O)NCC(=O)O)c(=O)n3c45)cc2)c1` (stereo not drawn) [Example 150, N-{[3-(3′-cyanobiphenyl-4-yl)-7-hydroxy-5-oxo-2,3-dihydro-5H-[1,4]oxazino[2,3,4-ij]quinolin-6-yl]carbonyl}glycine], the pIC50 is 7.89.

For `O=C(O)CNC(=O)c1c(O)c2cccc3c2n(c1=O)C(c1ccc(-c2cccnc2)cc1)CO3` (stereo not drawn) [Example 151, N-{[7-hydroxy-5-oxo-3-(4-pyridin-3-ylphenyl)-2,3-dihydro-5H-[1,4]oxazino[2,3,4-ij]quinolin-6-yl]carbonyl}glycine], the pIC50 was 8.04.

As for `O=C(O)CNC(=O)c1c(O)c2cccc3c2n(c1=O)C(c1ccc(-c2ccn[nH]2)cc1)CO3` (stereo not drawn) [Example 152, 2-(3-(4-(1H-pyrazol-5-yl)phenyl)-7-hydroxy-5-oxo-3,5-dihydro-2H-[1,4]oxazino[2,3,4-ij]quinoline-6-carboxamido)acetic acid], the pIC50 was 7.96.

On to `COc1ccc(-c2ccc3c(O)c(C(=O)NCC(=O)O)c(=O)n4c3c2OCC4)cn1` [Example 154, N-{[7-hydroxy-10-(6-methoxypyridin-3-yl)-5-oxo-2,3-dihydro-5H-[1,4]oxazino[2,3,4-ij]quinolin-6-yl]carbonyl}glycine], for which the pIC50 was 8.43.

Turning to `Cc1noc(C)c1-c1ccc2c(O)c(C(=O)NCC(=O)O)c(=O)n3c2c1OCC3` [Example 155, N-{[10-(3,5-dimethylisoxazol-4-yl)-7-hydroxy-5-oxo-2,3-dihydro-5H-[1,4]oxazino[2,3,4-ij]quinolin-6-yl]carbonyl}glycine], the pIC50 was 8.48.
